From patent publication US20060167083A1, “Therapeutic methods and compositions involving isoflav-3-ene and isoflavan structures” (priority 2002, published 2006) come the findings set out here.

In brackets after ≈: the same amount, converted by molar mass. Several values for one entry are separate records, joined by “and”; a condition that tells them apart may be missing. Equal values may be shown once. Read-outs that look alike come from different tables or passages of the source.

Data set [1] has as its system human prostatic adenocarcinoma cell line LNCaP. Put plainly: Proliferation of LNCaP cells, MTT assay. The class given is cell-based. The procedure: Proliferation assay: HUVEC were seeded at 3×10^3 cells per gelatin-coated microtitre well and grown in complete medium for 3 days. Dehydroequol (De) was added 3 hours after plating. Proliferation was measured using the MTT assay (Promega, Wis., USA) and is given as the rate of proliferation over the 3 days±SEM of quadruplicate determinations for each group. Proliferation of LNCaP cells was determined using the MTT assay. Cells were seeded at 2.5×10^3 cells per microtitre well. De was added 4 days after plating and assayed after a further 5 days of growth. Cell viability is expressed as a percentage of control untreated cells.
(In general: Formazan colour is commonly taken as a measure of viable cells.)

Another data set relates to MMP-2. Put plainly: Northern blot analysis of MMP-2 mRNA in endothelial cells. The class given is cell-based, human. The note with it: 10 μg/ml for 18 hours; two experiments; listed as De. The procedure: Northern blot analysis: HUVEC were plated at 1×10^6 cells per 25 cm^2 flask and grown for 48 hours. Following treatment with DMSO vehicle or De (10 μg/ml final) for 18 hours, total RNA was harvested and purified using TRIZOL reagent (Invitrogen—Life Technologies, Groningen, Netherlands) according to the manufacturer's protocol. Northern blot analysis was performed using 8 μg total RNA transferred onto Hybond-N membranes (Amersham Biosciences, Buckinghamshire, England) and probed with human MMP-2 and GAPDH cDNAs using a Strip-EZ PCR stripAble PCR Probe synthesis and removal Kit (Ambion, Tex., USA).

For data set [2], the system named is Ras transformed NIH 3T3 cells. The data set is described as follows: Focus formation assay. The format is cell-based. The note with it: 10 μg/ml, 3 weeks. On the procedure: Focus formation assay: Low passage NIH 3T3 cells were transfected with either human ras gene (Ras) or empty vector (Vect) control^19. Two days later the transfected cells were seeded in 6 well plates. After reaching confluence, the cells were cultured in the vehicle DMSO or De (10 μg/ml final) for 3 weeks with media change every 3-4 days (±De). Foci were scored after staining with 0.5% crystal violet. One experiment of two performed is shown.

The next data set concerns leukaemic cell line K562. The data set is described as follows: Anti-proliferative effect on K562. The format is cell-based. Particulars: Homo sapiens.
For data set [3], the system named is Human umbilical vein endothelial cells (HUVEC). Put plainly: Endothelial cell migration (wound) assay. The class given is cell-based. On the procedure: Migration assay: HUVEC were plated at 5×10^5 cells per gelatin-coated 6 well dish and grown to confluence over 48 hours. Wounds were made in the monolayer, cells washed 3 times and fresh complete media with or without De (10 μg/ml final concentration) added. Migration was viewed over the following 18-72 hours.

In the next data set the target is T1, tNOX (Homo sapiens, UniProt Q16206).
T1 construct: endogenous in cells; host or cells: HeLa (human cervical carcinoma)
T1 sequence (Q16206 whole entry): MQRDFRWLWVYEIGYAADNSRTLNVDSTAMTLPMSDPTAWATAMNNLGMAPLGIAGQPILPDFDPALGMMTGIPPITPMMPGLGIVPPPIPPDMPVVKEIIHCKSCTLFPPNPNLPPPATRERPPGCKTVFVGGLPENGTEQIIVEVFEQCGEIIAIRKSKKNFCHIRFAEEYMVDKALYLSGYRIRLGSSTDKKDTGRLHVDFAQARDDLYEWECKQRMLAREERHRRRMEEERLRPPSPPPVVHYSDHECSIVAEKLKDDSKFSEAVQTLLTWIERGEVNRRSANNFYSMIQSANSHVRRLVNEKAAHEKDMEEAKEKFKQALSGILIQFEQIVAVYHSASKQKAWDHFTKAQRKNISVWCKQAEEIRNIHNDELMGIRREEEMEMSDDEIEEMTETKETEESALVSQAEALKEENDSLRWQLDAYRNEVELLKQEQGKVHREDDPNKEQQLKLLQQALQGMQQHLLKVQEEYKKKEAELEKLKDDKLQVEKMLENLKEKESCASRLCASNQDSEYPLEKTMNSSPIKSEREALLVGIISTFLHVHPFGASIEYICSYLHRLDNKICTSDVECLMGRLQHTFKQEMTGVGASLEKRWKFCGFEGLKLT
The data set is described as follows: tNOX inhibition, 96-well plate assay with HeLa in dithiodipyridine substrate. The class given is cell-based. Particulars: 10 μm. The source says:
A 96-well plate assay was used containing human cervical carcinoma (HeLa) in a dithiodipyridine substrate.

What is called IC50 is the midpoint of a concentration-inhibition curve. For `Oc1ccc(C2=Cc3ccc(O)cc3OC2)cc1` [Dehydroequol, 4′,7-dihydroxyisoflav-3-ene], the IC50 in data set [1] (LNCaP, read-out: IC50 anti-proliferative) turned out to be 1.5 µg/mL; in data set [1] (LnCaP, n=3 separate experiments, read-out: In vitro cytotoxicity IC50) it was 4.4 µM; in the data set with leukaemic cell line K562, 3 µg/mL (≈ 12.5 µM). Further, the “decrease in level of mRNA for MMP-2” value in the data set on MMP-2 was 68.3% and 46.7%. The “inhibition of development of colonies (foci)” value in data set [2] is listed as “completely inhibited”. In addition, the “inhibition of EC migration” value in data set [3] (10 μg/ml) is reported as “inhibits”. Also, in data set [3] (in the presence of De for 72 hours), the “viability of EC not in the vicinity of the wound” value is reported as “remained viable”. The “inhibition of tNOX activity” value against tNOX is on record as “inhibit tNOX activity”.
